Reference: patent US8563714B2, “Bridged spiro [2.4] heptane derivatives as ALX receptor and/or FPRL2 agonists” (Actelion Pharmaceuticals Ltd., priority 2009, dated 2013)
pEC50: −log10 of the molar value.

Experiments:
human ALX receptor = target: T1, human ALX receptor (Homo sapiens, UniProt P25090); test: Intracellular calcium measurements (FLIPR), agonistic activity in HEK293-hALXR-Gα16 cells; format: cell-based; conditions: Fluo-4 calcium FLIPR, normalized to WKYMVm 10 nM
T1 construct: expressed in transfected cells; host or cells: HEK293 (HEK293-hALXR-Gα16)
T1 sequence (P25090 1-351): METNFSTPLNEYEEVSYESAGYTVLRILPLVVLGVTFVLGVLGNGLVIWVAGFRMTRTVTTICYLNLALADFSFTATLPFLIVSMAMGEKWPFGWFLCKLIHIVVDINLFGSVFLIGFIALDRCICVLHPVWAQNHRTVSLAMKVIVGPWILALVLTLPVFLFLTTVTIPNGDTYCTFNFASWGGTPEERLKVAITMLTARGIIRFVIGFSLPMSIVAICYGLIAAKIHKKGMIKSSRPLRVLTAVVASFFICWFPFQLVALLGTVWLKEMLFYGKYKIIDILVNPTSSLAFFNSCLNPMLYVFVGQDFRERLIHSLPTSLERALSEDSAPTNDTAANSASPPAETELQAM
Method in brief: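 HEK293 cells expressing hALXR and Gα16 were loaded with 1 μM Fluo-4 AM and 20 mM HEPES for 60 min at 37°C, then exposed to serially diluted compound. FLIPR fluorescence was read at ex 488/em 540 nm. Baseline-subtracted peak responses were normalized to 10 nM WKYMVm.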

human FPRL2 = target: T2, human FPRL2 (Homo sapiens, UniProt P25089); test: Intracellular calcium measurements (FLIPR), agonistic activity in HEK293-hFPRL2-Gα16 cells; format: cell-based; conditions: Fluo-4 calcium FLIPR, normalized to GLY14-Humanin 100 nM
T2 construct: expressed in transfected cells; host or cells: HEK293 (HEK293-hFPRL2-Gα16)
T2 sequence (P25089 1-353): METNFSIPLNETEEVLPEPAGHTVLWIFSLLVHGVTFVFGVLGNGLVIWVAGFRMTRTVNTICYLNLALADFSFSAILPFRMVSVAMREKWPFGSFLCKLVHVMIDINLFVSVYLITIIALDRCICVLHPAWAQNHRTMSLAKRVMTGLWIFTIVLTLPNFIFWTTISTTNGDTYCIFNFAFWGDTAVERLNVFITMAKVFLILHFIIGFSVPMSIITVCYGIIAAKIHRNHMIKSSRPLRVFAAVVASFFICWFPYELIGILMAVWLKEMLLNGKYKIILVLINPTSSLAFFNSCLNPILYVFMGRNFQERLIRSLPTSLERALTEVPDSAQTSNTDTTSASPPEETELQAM
Method in brief: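 Peak values after baseline subtraction are expressed relative to 100 nM Gly14-Humanin; compounds diluted in assay buffer from 10 mM DMSO stocks.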

| Structure (SMILES) | pEC50 (human ALX receptor) | pEC50 (human FPRL2) |
| --- | --- | --- |
| O=C(NCCCCN1CCCC1)C1C(C(=O)Nc2ccc(Br)cn2)C2C=CC1C21CC1 (racemic) [Example 119, (5R*)—N^5-(5-Bromo-pyridin-2-yl)-(6R*)—N^6-(4-pyrrolidin-1-yl-butyl)-(4S*,7R*)-[4,7-ethenylene-spiro[2.4]heptane]-5,6-dicarboxamide] | 7.77 | 6.39 |
| CCCCCNC(=O)[C@H]1[C@H](C(=O)NCCCCN2CCCC2)[C@H]2C=C[C@@H]1C21CC1 (racemic) [Example 122, (5R*)—N^5-Pentyl-(6R*)—N^6-(4-pyrrolidin-1-yl-butyl)-(4S*,7R*)-[4,7-ethenylene-spiro[2.4]heptane]-5,6-dicarboxamide] | 7.10 | 6.30 |
| Cc1ccc(CNC(=O)[C@H]2[C@H](C(=O)NCCCCN3CCCC3)[C@H]3C=C[C@@H]2C32CC2)cc1 (racemic) [Example 123, (5R*)—N^5-[(4-Methyl-phenyl)-methyl]-(6R*)—N^6-(4-pyrrolidin-1-yl-butyl)-(4S*,7R*)-[4,7-ethenylene-spiro[2.4]heptane]-5,6-dicarboxamide] | 7.34 | 6.48 |
| O=C(NCCCCN1CCCC1)[C@H]1[C@H](C(=O)NCC2CCCCC2)[C@@H]2C=C[C@H]1C21CC1 (racemic) [Example 125, (5R*)—N^5-(Cyclohexyl-methyl)-(6R*)—N^6-(4-pyrrolidin-1-yl-butyl)-(4S*,7R*)-[4,7-ethenylene-spiro[2.4]heptane]-5,6-dicarboxamide] | 7.22 | 6.57 |
| O=C(NCCCCN1CCCC1)[C@H]1[C@H](C(=O)NCc2ccco2)[C@@H]2C=C[C@H]1C21CC1 (racemic) [Example 131, (5R*)—N^5-(Furan-2-yl-methyl)-(6R*)—N^6-(4-pyrrolidin-1-yl-butyl)-(4S*,7R*)-[4,7-ethenylene-spiro[2.4]heptane]-5,6-dicarboxamide] | 6.76 | 6.45 |
| O=C(NCCCCN1CCCC1)[C@H]1[C@H](C(=O)Nc2ccc(OC(F)(F)F)cc2)[C@@H]2C=C[C@H]1C21CC1 (racemic) [Example 133, (5R*)—N^5-(4-Trifluoromethoxyphenyl)-(6R*)—N^6-(4-pyrrolidin-1-yl-butyl)-(4S*,7R*)-[4,7-ethenylene-spiro[2.4]heptane]-5,6-dicarboxamide] | 6.58 | 6.91 |
| O=C(NCCCCN1CCCC1)[C@H]1[C@H](C(=O)NCCOc2ccccc2)[C@@H]2C=C[C@H]1C21CC1 (racemic) [Example 134, (5R*)—N^5-(2-Phenoxy-ethyl)-(6R*)—N^6-(4-pyrrolidin-1-yl-butyl)-(4S*,7R*)-[4,7-ethenylene-spiro[2.4]heptane]-5,6-dicarboxamide] | 6.50 | 6.21 |
| CC(C)CCNC(=O)[C@H]1[C@H](C(=O)NCCCCN2CCCC2)[C@H]2C=C[C@@H]1C21CC1 (racemic) [Example 135, (5R*)—N^5-(3-Methyl-butyl)-(6R*)—N^6-(4-pyrrolidin-1-yl-butyl)-(4S*,7R*)-[4,7-ethenylene-spiro[2.4]heptane]-5,6-dicarboxamide] | 6.45 | 6.65 |
| CCCCNC(=O)[C@H]1[C@H](C(=O)NCCCCN2CCCC2)[C@H]2C=C[C@@H]1C21CC1 (racemic) [Example 136, (5R*)—N^5-Butyl-(6R*)—N^6-(4-pyrrolidin-1-yl-butyl)-(4S*,7R*)-[4,7-ethenylene-spiro[2.4]heptane]-5,6-dicarboxamide] | 6.44 | 5.93 |
| Cc1ccc(CNC(=O)[C@H]2[C@H](C(=O)NCCCCN3CCCC3)[C@H]3C=C[C@@H]2C32CC2)o1 (racemic) [Example 137, (5R*)—N^5-(5-Methyl-furan-2-yl-methyl)-(6R*)—N^6-(4-pyrrolidin-1-yl-butyl)-(4S*,7R*)-[4,7-ethenylene-spiro[2.4]heptane]-5,6-dicarboxamide] | 6.25 | 6.72 |
| Cc1nc2cc(NC(=O)[C@H]3[C@H](C(=O)NCCCCN4CCCC4)[C@H]4C=C[C@@H]3C43CC3)ccc2s1 (racemic) [Example 138, (5R*)—N^5-(2-Methyl-benzothiazol-5-yl)-(6R*)—N^6-(4-pyrrolidin-1-yl-butyl)-(4S*,7R*)-[4,7-ethenylene-spiro[2.4]heptane]-5,6-dicarboxamide] | 6.24 | 6.48 |

The remaining compounds from weak to strong by pEC50 (human ALX receptor), led by results:

| pEC50 (human ALX receptor) | pEC50 (human FPRL2) | Structure (SMILES) |
| --- | --- | --- |
| 6.14 | 6.82 | O=C(NCCCCN1CCCC1)[C@H]1[C@H](C(=O)NCCc2ccccc2)[C@@H]2C=C[C@H]1C21CC1 (racemic) [Example 139, (5R*)—N^5-(2-Phenyl-ethyl)-(6R*)—N^6-(4-pyrrolidin-1-yl-butyl)-(4S*,7R*)-[4,7-ethenylene-spiro[2.4]heptane]-5,6-dicarboxamide] |
| 6.78 | 5.20 | N#Cc1cnc(NC(=O)[C@H]2[C@H](C(=O)NCCCCN3CCCC3)[C@H]3C=C[C@@H]2C32CC2)s1 (racemic) [Example 130, (5R*)—N^5-(5-Cyano-thiazol-2-yl)-(6R*)—N^6-(4-pyrrolidin-1-yl-butyl)-(4S*,7R*)-[4,7-ethenylene-spiro[2.4]heptane]-5,6-dicarboxamide] |
| 6.92 | 5.92 | O=C(NCCCCN1CCCC1)[C@H]1[C@H](C(=O)Nc2ncc(Cl)s2)[C@@H]2C=C[C@H]1C21CC1 (racemic) [Example 129, (5R*)—N^5-(5-Chloro-thiazol-2-yl)-(6R*)—N^6-(4-pyrrolidin-1-yl-butyl)-(4S*,7R*)-[4,7-ethenylene-spiro[2.4]heptane]-5,6-dicarboxamide] |
| 6.92 | 5.46 | O=C(NCCCCN1CCCC1)[C@H]1[C@H](C(=O)Nc2ncc([N+](=O)[O-])s2)[C@@H]2C=C[C@H]1C21CC1 (racemic) [Example 128, (5R*)—N^5-(5-Nitro-thiazol-2-yl)-(6R*)—N^6-(4-pyrrolidin-1-yl-butyl)-(4S*,7R*)-[4,7-ethenylene-spiro[2.4]heptane]-5,6-dicarboxamide] |
| 7.02 | 6.34 | Cc1ccc(NC(=O)[C@H]2[C@H](C(=O)NCCCCN3CCCC3)[C@H]3C=C[C@@H]2C32CC2)nc1 (racemic) [Example 121, (5R*)—N^5-(5-Methyl-pyridin-2-yl)-(6R*)—N^6-(4-pyrrolidin-1-yl-butyl)-(4S*,7R*)-[4,7-ethenylene-spiro[2.4]heptane]-5,6-dicarboxamide] |
| 7.02 | 5.56 | CC(=O)CCCCNC(=O)[C@H]1[C@H](C(=O)NCCCCN2CCCC2)[C@H]2C=C[C@@H]1C21CC1 (racemic) [Example 127, (5R*)—N^5-(5-oxo-hexyl)-(6R*)—N^6-(4-pyrrolidin-1-yl-butyl)-(4S*,7R*)-[4,7-ethenylene-spiro[2.4]heptane]-5,6-dicarboxamide] |
| 7.28 | 5.94 | COC(=O)CCNC(=O)[C@H]1[C@H](C(=O)NCCCCN2CCCC2)[C@H]2C=C[C@@H]1C21CC1 (racemic) [Example 124, (5R*)—N^5-(2-Methoxycarbonyl-ethyl)-(6R*)—N^6-(4-pyrrolidin-1-yl-butyl)-(4S*,7R*)-[4,7-ethenylene-spiro[2.4]heptane]-5,6-dicarboxamide] |
| 7.33 | 6.85 | O=C(NCCCCN1CCCC1)C1C(C(=O)NCc2ccc(Br)cc2)C2C=CC1C21CC1 (racemic) [Example 118, (5R*)—N^5-(4-Bromophenyl-methyl)-(6R*)—N^6-(4-pyrrolidin-1-yl-butyl)-(4S*,7R*)-[4,7-ethenylene-spiro[2.4]heptane]-5,6-dicarboxamide] |
| 7.77 | 6.44 | O=C(NCCCCN1CCCC1)[C@H]1[C@H](C(=O)Nc2ncc(Br)s2)[C@@H]2C=C[C@H]1C21CC1 (racemic) [Example 120, (5R*)—N^5-(5-Bromo-thiazol-2-yl)-(6R*)—N^6-(4-pyrrolidin-1-yl-butyl)-(4S*,7R*)-[4,7-ethenylene-spiro[2.4]heptane]-5,6-dicarboxamide] |
| 8.00 | 6.44 | O=C(NCCCCN1CCCC1)[C@H]1[C@H](C(=O)Nc2ccc3scnc3c2)[C@@H]2C=C[C@H]1C21CC1 (racemic) [Example 117, (5R*)—N^5-(Benzothiazol-5-yl)-(6R*)—N^6-(4-pyrrolidin-1-yl-butyl)-(4S*,7R*)-[4,7-ethenylene-spiro[2.4]heptane]-5,6-dicarboxamide] |
